Data taken from ChEMBL document CHEMBL4808237, “Ginkgonitroside, a new nitrophenyl glycoside and bioactive compounds from Ginkgo biloba leaves controlling adipocyte and osteoblast differentiation” (2021).

Columns and labels:
[1] = Inhibition of adipogenesis in mouse C3H10T1/2 cells assessed as lipid droplet formation at 20 uM by Oil red O staining relative to control; assay type: functional, C3H 10T1/2; parameters: scale not given: the % may be the effect or the level left
[2] = test system: C3H 10T1/2; assay: Induction of differentiation in mouse C3H10T1/2 cells assessed as increase […] by measuring ALP activity at 20 uM relative to control; assay type: functional

Compound | Activity [1] [%] | fold change (FC) [2]
O=[N+]([O-])c1ccc(O[C@@H]2O[C@H](CO)[C@@H](O)[C@H](O)[C@H]2O)cc1 | 17 | –
Cc1cc([N+](=O)[O-])ccc1O[C@@H]1O[C@H](CO)[C@@H](O)[C@H](O)[C@H]1O | 17 | –
COC(=O)c1ccc(O[C@@H]2O[C@H](CO)[C@@H](O)[C@H](O)[C@H]2O)cc1 | 17 | –
COc1cc([C@@H]2OC[C@@H]3[C@H]2CO[C@H]3c2ccc(O[C@@H]3O[C@H](CO)[C@@H](O)[C@H](O)[C@H]3O)c(OC)c2)ccc1O | – | 1.3
